This note sets out measurements from PMC3833056 (The Journal of organic chemistry, 2010).

One assay relates to α-(1,6)-ManTs. The assay can be described thus: Mannosyl acceptor. The conditions noted are these: up to 4 mM. The class given is biochemical, Mycobacterium smegmatis.
Assay [1] relates to mycobacterial α-(1,6)-mannosyltransferases. The assay can be described thus: In vitro PPM-dependent α-. The class given is biochemical, Mycobacterium smegmatis. The conditions noted are these: inhibitor 1.0 mM; acceptor 0.2 mM; several independent experiments.

The structures appear in SMILES notation.

For the compound `OCC[C@H]1O[C@H](Cn2cc([C@H]3O[C@H](CO)[C@@H](O)[C@H](O)[C@@H]3O)nn2)[C@@H](O)[C@H](O)[C@@H]1O` [compound 31, 3,7-Anhydro-2,8-dideoxy-8-[4-(α-D-mannopyranosyl)-1H-1,2,3-triazol-1-yl]-D-glycero-D-talo-octitol], the mannosyl acceptor activity entry with α-(1,6)-ManTs is “poor mannosyl acceptor”.

Take `C[C@H]1O[C@H](c2cn(C[C@H]3O[C@@H](c4cn(C[C@H]5O[C@@H](c6cn(C[C@H]7O[C@@H](c8cn(C[C@H]9O[C@H](c%10cn(C[C@H]%11O[C@H](CCO)[C@@H](O)[C@@H](O)[C@@H]%11O)nn%10)[C@@H](O)[C@@H](O)[C@@H]9O)nn8)[C@@H](O)[C@@H](O)[C@@H]7O)nn6)[C@@H](O)[C@@H](O)[C@@H]5O)nn4)[C@@H](O)[C@@H](O)[C@@H]3O)nn2)[C@@H](O)[C@@H](O)[C@@H]1O` [TOM-6]: the “inhibition of α-(1,6)-mannosyltransferase activity” value in assay [1] was “ca. 95%”.

As to `C[C@H]1O[C@H](c2cn(C[C@H]3O[C@@H](c4cn(C[C@H]5O[C@@H](c6cn(C[C@H]7O[C@@H](c8cn(C[C@H]9O[C@@H](c%10cn(C[C@H]%11O[C@@H](c%12cn(C[C@H]%13O[C@H](c%14cn(C[C@H]%15O[C@H](CCO)[C@@H](O)[C@@H](O)[C@@H]%15O)nn%14)[C@@H](O)[C@@H](O)[C@@H]%13O)nn%12)[C@@H](O)[C@@H](O)[C@@H]%11O)nn%10)[C@@H](O)[C@@H](O)[C@@H]9O)nn8)[C@@H](O)[C@@H](O)[C@@H]7O)nn6)[C@@H](O)[C@@H](O)[C@@H]5O)nn4)[C@@H](O)[C@@H](O)[C@@H]3O)nn2)[C@@H](O)[C@@H](O)[C@@H]1O` [TOM-8], the “inhibition of α-(1,6)-mannosyltransferase activity” value in assay [1] was “ca. 95%”.
